Experiments:
Caco-2 cells = experiment: Caco-2 Permeability Assay; format: in vitro ADME; settings: test compound 3 μM
Method in brief: (§1)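 Bidirectional permeability measured over 2 h at 37° C, compound dosed at 3 μM in the donor compartment (apical for absorptive, basolateral for secretive) with plain buffer as receiver.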

[1] = tested on: Human whole blood stimulated with a TLR2 agonist (lipoteichoic acid), IL-6 levels; experiment: IRAK4 Whole Blood Assay; format: cell-based; settings: lipoteichoic acid 10 μg/mL
Method in brief: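 IL-6 was quantified by cytometric bead assay in supernatants of human blood (ACD-A) stimulated for 5 h with lipoteichoic acid at 10 μg/mL final. Compound exposure preceded stimulation for 60 min at 37 °C, 5% CO2.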

IRAK4 = IRAK4 (Homo sapiens (Human), UniProt Q9NWZ3); experiment: IRAK4 Inhibition Assay; format: biochemical; settings: ATP 500 μM; IRAK4 0.6 nM
Method in brief: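 Mobility-shift kinase assay: 0.6 nM IRAK4, 500 μM ATP, 1.5 μM fluorescent peptide, 60 min, room temperature. Percent inhibition was normalised between enzyme-free and DMSO-only wells.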

[2] = Caco-2 Permeability Assay; format: in vitro ADME; settings: human, Caco-2, test compound 3 μM
Method in brief: as §1

IRAK4, sequence (Q9NWZ3 whole entry, species assumed): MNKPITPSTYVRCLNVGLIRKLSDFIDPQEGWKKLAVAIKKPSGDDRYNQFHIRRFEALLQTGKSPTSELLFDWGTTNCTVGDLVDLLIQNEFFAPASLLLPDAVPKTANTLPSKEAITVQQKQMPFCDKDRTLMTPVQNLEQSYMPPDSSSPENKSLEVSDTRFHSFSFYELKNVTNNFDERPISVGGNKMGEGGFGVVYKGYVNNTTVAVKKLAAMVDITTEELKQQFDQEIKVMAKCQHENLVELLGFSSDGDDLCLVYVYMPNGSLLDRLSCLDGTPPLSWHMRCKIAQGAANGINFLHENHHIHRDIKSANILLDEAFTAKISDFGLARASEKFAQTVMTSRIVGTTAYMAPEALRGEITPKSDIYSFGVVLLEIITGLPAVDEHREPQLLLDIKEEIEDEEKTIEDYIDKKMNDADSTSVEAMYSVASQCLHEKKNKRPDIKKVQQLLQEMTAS

| Structure (SMILES) | Caco-2 Permeability (Caco-2 cells) [×10⁻⁶ cm/s] | EC50 [1] [nM] | IC50 (IRAK4) [nM] | Caco-2 Permeability (Caco-2 cells; listed as 400, Isomer 1) [×10⁻⁶ cm/s] | EC50 ([1]; Homo sapiens) [nM] | Caco-2 Permeability (Caco-2 cells; listed as 400, Isomer 2) [×10⁻⁶ cm/s] | EC50 ([1]; listed as 400, Isomer 2) [nM] | Papp at 2 h, 3 µM [2] [×10⁻⁶ cm/s] |
| --- | --- | --- | --- | --- | --- | --- | --- | --- |
| CC(=O)N1CCC[C@@H](c2cc(-c3cnc(-n4ncc5cc(C#N)cnc54)cc3NC(C)C)on2)C1 [Example 409, (R)-1-(5-(3-(1-acetylpiperidin-3-yl)isoxazol-5-yl)-4-(isopropylamino)pyridin-2-yl)-1H-pyrazolo[3,4-b]pyridine-5-carbonitrile] | 30.2 | 470 | 2 |  |  |  |  |  |
| CC(C)Nc1cc(-n2ncc3cc(C#N)cnc32)ncc1-c1cc([C@@H]2C[C@H](O)CCN2)no1 [Example 424, 1-(5-(3-((2S,4R)-4-hydroxypiperidin-2-yl)isoxazol-5-yl)-4-(isopropylamino)pyridin-2-yl)-1H-pyrazolo[3,4-b]pyridine-5-carbonitrile] |  |  | 10 |  | 180 |  |  | < 1.5 |
| CC(C)Nc1cc(-n2ncc3cc(C#N)cnc32)ncc1-c1cc([C@H]2C[C@@H](O)CCN2)no1 [Example 425, 1-(5-(3-((2R,4S)-4-hydroxypiperidin-2-yl)isoxazol-5-yl)-4-(isopropylamino)pyridin-2-yl)-1H-pyrazolo[3,4-b]pyridine-5-carbonitrile] |  |  | 9 |  | 140 |  |  | < 1.5 |
| CC(=O)N1CC[C@H]1c1cc(-c2cnc(-n3ncc4cc(C#N)cnc43)cc2NC(C)C)on1 [Example 427, (S)-1-(5-(3-(1-acetylazetidin-2-yl)isoxazol-5-yl)-4-(isopropylamino)pyridin-2-yl)-1H-pyrazolo[3,4-b]pyridine-5-carbonitrile] |  |  | 15 |  | 250 |  |  | 8 |
| CC(C)Nc1cc(-n2ncc3cc(C#N)cnc32)ncc1-c1nnc(C(=O)N2CCOCC2)o1 [Example 433, 1-(4-(isopropylamino)-5-(5-(morpholine-4-carbonyl)-1,3,4-oxadiazol-2-yl)pyridin-2-yl)-1H-pyrazolo[3,4-b]pyridine-5-carbonitrile] |  |  | 11 |  | 200 |  |  | 1.7 |
| CC(C)Nc1cc(-n2ncc3cc(C#N)cnc32)ncc1-c1cc(CC(C)(C)O)on1 [Example 439, 1-(5-(5-(2-hydroxy-2-methylpropyl)isoxazol-3-yl)-4-(isopropylamino)pyridin-2-yl)-1H-pyrazolo[3,4-b]pyridine-5-carbonitrile] | 31 | 250 |  |  |  |  |  |  |
| CCNc1cc(-n2ncc3cc(C#N)cnc32)ncc1C1=NOC(CCC(C)(C)O)C1 (centres unmarked) [Example 440, 1-(4-(ethylamino)-5-(5-(3-hydroxy-3-methylbutyl)-4,5-dihydroisoxazol-3-yl)pyridin-2-yl)-1H-pyrazolo[3,4-b]pyridine-5-carbonitrile] |  |  | 4 |  | 280 |  |  | 31.6 |
| CCNc1cc(-n2ncc3cc(C#N)cnc32)ncc1C1=NOC(CCC(C)(C)O)C1 (centres unmarked) [Example 441, 1-(4-(ethylamino)-5-(5-(3-hydroxy-3-methylbutyl)-4,5-dihydroisoxazol-3-yl)pyridin-2-yl)-1H-pyrazolo[3,4-b]pyridine-5-carbonitrile] | 31.7 | 260 | 2 |  |  |  |  |  |
| CC(C)(O)CCC1CC(c2cnc(-n3ncc4cc(C#N)cnc43)cc2NCC(F)F)=NO1 (centres unmarked) [Example 443, 1-(4-((2,2-difluoroethyl)amino)-5-(5-(3-hydroxy-3-methylbutyl)-4,5-dihydroisoxazol-3-yl)pyridin-2-yl)-1H-pyrazolo[3,4-b]pyridine-5-carbonitrile] |  | 390 | 2 |  |  |  |  | 14.1 |

Other lines, results leading:

| Caco-2 Permeability (Caco-2 cells) [×10⁻⁶ cm/s] | EC50 [1] [nM] | IC50 (IRAK4) [nM] | Caco-2 Permeability (Caco-2 cells; listed as 400, Isomer 1) [×10⁻⁶ cm/s] | EC50 ([1]; Homo sapiens) [nM] | Caco-2 Permeability (Caco-2 cells; listed as 400, Isomer 2) [×10⁻⁶ cm/s] | EC50 ([1]; listed as 400, Isomer 2) [nM] | Papp at 2 h, 3 µM [2] [×10⁻⁶ cm/s] | Structure (SMILES) |
| --- | --- | --- | --- | --- | --- | --- | --- | --- |
| 16.2 | 370 | 5 |  |  |  |  |  | CC(C)Nc1cc(-n2ncc3cc(C#N)cnc32)ncc1-c1cn(CC2CC2(F)F)nn1 (single isomer, unassigned) [Example 32, 1-(5-(1-((2,2-difluorocyclopropyl)methyl)-1H-1,2,3-triazol-4-yl)-4-(isopropylamino)pyridin-2-yl)-1H-pyrazolo[3,4-b]pyridine-5-carbonitrile] |
| 11.5 | 280 | 10 |  |  |  |  |  | CCC(C)(O)Cn1cc(-c2cnc(-n3ncc4cc(C#N)cnc43)cc2NC(C)C)nn1 (single isomer, unassigned) [Example 93, 1-(5-(1-(2-hydroxy-2-methylbutyl)-1H-1,2,3-triazol-4-yl)-4-(isopropylamino)pyridin-2-yl)-1H-pyrazolo[3,4-b]pyridine-5-carbonitrile] |
| 3.2 | 290 | 2 |  |  |  |  |  | CC(C)Nc1cc(-n2ncc3cc(C#N)cnc32)ncc1-c1cn([C@@H]2CCN(S(C)(=O)=O)C[C@H]2F)nn1 (single isomer, unassigned) [Example 211, 1-(5-(1-((trans)-3-fluoro-1-(methylsulfonyl)piperidin-4-yl)-1H-1,2,3-triazol-4-yl)-4-(isopropylamino)pyridin-2-yl)-1H-pyrazolo[3,4-b]pyridine-5-carbonitrile] |
|  |  | 3 | 22.4 | 230 |  |  |  | CC(C)Nc1cc(-n2ncc3cc(C#N)cnc32)ncc1-c1cc(C2COCCN2)no1 (single isomer, unassigned) [Example 400, Isomer 1, 1-(4-(isopropylamino)-5-(3-(morpholin-3-yl)isoxazol-5-yl)pyridin-2-yl)-1H-pyrazolo[3,4-b]pyridine-5-carbonitrile] |
|  |  | 6 |  |  | 53 | 270 |  | CC(C)Nc1cc(-n2ncc3cc(C#N)cnc32)ncc1-c1cc(C2COCCN2)no1 (single isomer, unassigned) [Example 400, Isomer 2, 1-(4-(isopropylamino)-5-(3-(morpholin-3-yl)isoxazol-5-yl)pyridin-2-yl)-1H-pyrazolo[3,4-b]pyridine-5-carbonitrile] |
| 3.5 | 250 | 2 |  |  |  |  |  | CC(=O)N1CCCC(n2cc(-c3cnc(-n4ncc5cc(C#N)cnc54)cc3NC(C)C)nn2)C1 (centres unmarked) [Example 161, 1-(5-(1-(1-acetylpiperidin-3-yl)-1H-1,2,3-triazol-4-yl)-4-(isopropylamino)pyridin-2-yl)-1H-pyrazolo[3,4-b]pyridine-5-carbonitrile] |
| 10.4 | 1310 | 8 |  |  |  |  |  | CC(C)Nc1cc(-n2ncc3cc(C#N)cnc32)ncc1-c1cn(C2CCOC2)nn1 (centres unmarked) [Example 215, 1-(4-(isopropylamino)-5-(1-(tetrahydrofuran-3-yl)-1H-1,2,3-triazol-4-yl)pyridin-2-yl)-1H-pyrazolo[3,4-b]pyridine-5-carbonitrile] |
| 13.9 | 300 | 5 |  |  |  |  |  | CC(C)Nc1cc(-n2ncc3cc(C#N)cnc32)ncc1-c1cc(C2CCCCN2)no1 [Example 413, (S)-1-(4-(isopropylamino)-5-(3-(piperidin-2-yl)isoxazol-5-yl)pyridin-2-yl)-1H-pyrazolo[3,4-b]pyridine-5-carbonitrile] |
|  |  | 4 |  | 460 |  |  | 26.3 | CC(C)Nc1cc(-n2ncc3cc(C#N)cnc32)ncc1-c1cc([C@@H]2COCCN2)on1 [Example 428, (S)-1-(4-(isopropylamino)-5-(5-(morpholin-3-yl)isoxazol-3-yl)pyridin-2-yl)-1H-pyrazolo[3,4-b]pyridine-5-carbonitrile] |
|  |  | 2 |  | 440 |  |  | 21.8 | CCN1CCOC[C@H]1c1cc(-c2cnc(-n3ncc4cc(C#N)cnc43)cc2NC(C)C)no1 [Example 431, (S)-1-(5-(5-(4-ethylmorpholin-3-yl)isoxazol-3-yl)-4-(isopropylamino)pyridin-2-yl)-1H-pyrazolo[3,4-b]pyridine-5-carbonitrile] |

Reference: patent US10294229B2, “Heteroaryl substituted aminopyridine compounds” (BRISTOL-MYERS SQUIBB COMPANY, priority 2015, dated 2019)
